Results reported in ChEMBL document CHEMBL4613209, “Quinolone hybrids and their anti-cancer activities: An overview” (Eur J Med Chem, 2019).

Legend:
[1] = system: HT-29; assay: Anticancer activity against human HT-29 cells by MTT assay; format: functional, cell-based
[2] = system: HepG2; assay: Anticancer activity against human HepG2 cells by MTT assay; format: functional, cell-based
[3] = system: HL-60; assay: Anticancer activity against human HL60 cells by MTT assay; format: functional, cell-based
[4] = system: P388; assay: Anticancer activity against mouse P388 cells; format: functional, cell-based
[5] = system: HT-29; assay: Anticancer activity against human HT-29 cells; format: functional, cell-based
[6] = system: P388; assay: Cytotoxicity against doxorubicin resistant mouse P388 cells assessed as reduction in cell viability; format: functional, cell-based
[7] = system: B16-F10; assay: Cytotoxicity against mouse B16F10 cells assessed as reduction in cell viability; format: functional, cell-based
[8] = system: A549; assay: Anticancer activity against human A549 cells; format: functional, cell-based
[9] = system: P388; assay: Cytotoxicity against mouse P388 cells assessed as reduction in cell viability; format: functional, cell-based
[10] = system: B16-F10; assay: Anticancer activity against mouse B16F10 cells; format: functional, cell-based
[11] = system: HT-29; assay: Cytotoxicity against human HT-29 cells assessed as reduction in cell viability; format: functional, cell-based
[12] = system: Lewis lung carcinoma cell line; assay: Anticancer activity against mouse LLC cells; format: functional, cell-based
[13] = system: P388; assay: Anticancer activity against doxorubicin resistant mouse P388 cells; format: functional, cell-based
[14] = system: MCF7; assay: Anticancer activity against human MCF7 cells; format: functional, cell-based
[15] = system: A549; assay: Cytotoxicity against human A549 cells assessed as reduction in cell viability; format: functional, cell-based
[16] = system: HCT-8; assay: Anticancer activity against human HCT8 cells; format: functional, cell-based
[17] = system: NCI-H460; assay: Growth inhibition of human NCI-H460 cells; format: functional; conditions: pooled result: one value given for 3 cell lines, strains, targets or settings

CCOC(=O)c1cn(Cc2cn(-c3ccc(C)cc3)nn2)c2ccc(Cl)cc2c1=O
13100 to 88400 nM: IC50 [1] | IC50 [2] | IC50 [3]

O=C(O)c1cn2c3c(c1=O)C=C(F)C(N1CCC(Nc4ccccc4)C1)C3Oc1ccccc1-2 (stereo not given)
0.011 to 0.59 µg/mL: IC50 [6] | IC50 [7] | IC50 [9] | IC50 [11] | IC50 [15]
30 to 490 nM: IC50 [4] | IC50 [5] | IC50 [8] | IC50 [10] | IC50 [12] | IC50 [13] | IC50 [14] | IC50 [16]

COc1ccc2c(c1)[nH]c(=O)c1c3ccccc3oc21
10700 to 53700 nM: GI50 [17]

COc1ccc(NC2CCN(C3C(F)=Cc4c5n(cc(C(=O)O)c4=O)-c4ccccc4OC53)C2)cc1 (stereo not given)
30 to 490 nM: IC50 [4] | IC50 [5] | IC50 [8] | IC50 [10] | IC50 [12] | IC50 [13] | IC50 [14] | IC50 [16]
0.011 to 0.59 µg/mL: IC50 [6] | IC50 [7] | IC50 [9] | IC50 [11] | IC50 [15]

CCOC(=O)c1cn(Cc2cn(-c3ccc(Cl)cc3)nn2)c2ccc(C)cc2c1=O
13100 to 88400 nM: IC50 [1] | IC50 [2] | IC50 [3]

CCOC(=O)c1cn(Cc2cn(-c3ccc(C)cc3)nn2)c2ccc(F)cc2c1=O
13100 to 88400 nM: IC50 [1] | IC50 [2] | IC50 [3]

CC(C)(C)c1cccc(NC2CCN(C3C(F)=Cc4c5n(cc(C(=O)O)c4=O)-c4ccccc4OC53)C2)c1 (stereo not given)
30 to 490 nM: IC50 [4] | IC50 [5] | IC50 [8] | IC50 [10] | IC50 [12] | IC50 [13] | IC50 [14] | IC50 [16]
0.011 to 0.59 µg/mL: IC50 [6] | IC50 [7] | IC50 [9] | IC50 [11] | IC50 [15]

Cc1ccccc1NC1CCN(C2C(F)=Cc3c4n(cc(C(=O)O)c3=O)-c3ccccc3OC42)C1 (stereo not given)
30 to 490 nM: IC50 [4] | IC50 [5] | IC50 [8] | IC50 [10] | IC50 [12] | IC50 [13] | IC50 [14] | IC50 [16]
0.011 to 0.59 µg/mL: IC50 [6] | IC50 [7] | IC50 [9] | IC50 [11] | IC50 [15]

CCOC(=O)c1cn(Cc2cn(-c3ccc([N+](=O)[O-])cc3)nn2)c2ccc(Cl)cc2c1=O
13100 to 88400 nM: IC50 [1] | IC50 [2] | IC50 [3]

O=c1[nH]c2ccccc2c2[nH]c3ccccc3c12
19000 nM: GI50 [17]

O=c1[nH]c2ccc(F)cc2c2oc3ccccc3c12
10700 to 53700 nM: GI50 [17]

NC1CCN(C2C(F)=Cc3c4n(cc(C(=O)O)c3=O)-c3ccccc3OC42)C1 (stereo not given)
30 to 490 nM: IC50 [4] | IC50 [5] | IC50 [8] | IC50 [10] | IC50 [12] | IC50 [13] | IC50 [14] | IC50 [16]
0.011 to 0.59 µg/mL: IC50 [6] | IC50 [7] | IC50 [9] | IC50 [11] | IC50 [15]

COc1ccc2[nH]c(=O)c3c4ccccc4oc3c2c1
10700 to 53700 nM: GI50 [17]

Cc1ccc(NC2CCN(C3C(F)=Cc4c5n(cc(C(=O)O)c4=O)-c4ccccc4OC53)C2)cc1 (stereo not given)
0.011 to 0.59 µg/mL: IC50 [6] | IC50 [7] | IC50 [9] | IC50 [11] | IC50 [15]
30 to 490 nM: IC50 [4] | IC50 [5] | IC50 [8] | IC50 [10] | IC50 [12] | IC50 [13] | IC50 [14] | IC50 [16]

O=c1[nH]c2ccccc2c2[nH]c(-c3ccccc3)c(-c3ccccc3)c12
27500 nM: GI50 [17]

O=c1[nH]c2ccccc2c2[nH]cc(-c3ccccc3)c12
18200 nM: GI50 [17]

Cc1cccc(C)c1NC1CCN(C2C(F)=Cc3c4n(cc(C(=O)O)c3=O)-c3ccccc3OC42)C1 (stereo not given)
30 to 490 nM: IC50 [4] | IC50 [5] | IC50 [8] | IC50 [10] | IC50 [12] | IC50 [13] | IC50 [14] | IC50 [16]
0.011 to 0.59 µg/mL: IC50 [6] | IC50 [7] | IC50 [9] | IC50 [11] | IC50 [15]

O=c1[nH]c2ccc(Cl)cc2c2[nH]c3ccccc3c12
19000 nM: GI50 [17]
